From ChEMBL document CHEMBL3046230, “Diversity and antifeedant activity of diterpenes from Turkish species of Sideritis” (2000)

Experiments:
Type in all cases: functional
Spodoptera frugiperda = test: Antifeedant activity against Spodoptera frugiperda (fall armyworm) assessed as feeding index at 100 ppm after 18 hr relative to control
Spodoptera littoralis [1] = test: Phagostimulant activity against Spodoptera littoralis assessed as feeding index at 100 ppm after 18 hr relative to control
Spodoptera littoralis [2] = test: Antifeedant activity against Spodoptera littoralis assessed as feeding index at 100 ppm after 18 hr relative to control

CC(=O)OC[C@]1(C)[C@H]2C[C@H](O)[C@]34C=C(C)[C@H](CC[C@H]3[C@]2(C)CC[C@H]1O)C4
AFI (Spodoptera frugiperda): 12%

C=C1C[C@]23C[C@H]1CC[C@H]2[C@]1(C)CC[C@@H](O)[C@](C)(CO)[C@H]1C[C@@H]3O
FI (Spodoptera littoralis [1]): 52 | AFI (Spodoptera frugiperda): 21%

CC1=C[C@]23C[C@H]1CC[C@H]2[C@]1(C)CCC[C@](C)(CO)[C@H]1C[C@@H]3O
AFI (Spodoptera frugiperda): 13% | AFI (Spodoptera littoralis [2]): 27%

C=C1C[C@@]23C[C@@H]1CC[C@H]2[C@]1(C)CC[C@@H](O)[C@](C)(COC(C)=O)[C@@H]1C[C@@H]3O [LINEAROL]
AFI (Spodoptera frugiperda): 8%

C[C@]1(CO)CCC[C@]2(C)[C@H]1C[C@H](O)[C@@]13C[C@@H](CC[C@@H]21)[C@]1(C)O[C@@H]13 [SIDEROXOL]
AFI (Spodoptera frugiperda): 54% | AFI (Spodoptera littoralis [2]): 9%
